According to US10681909B2, “Herbicidal triazoles” (FMC Corporation, priority 2014, dated 2020):

How the values were obtained:
crabgrass, large = test: Test E preemergence; format: in vivo, Digitaria sanguinalis; conditions: scale 0 to 100
Source text: (§1) Seeds of plant species selected from corn (Zea mays), soybean (Glycine max), lambsquarters (Chenopodium album), poinsettia, wild (wild poinsettia, Euphorbia heterophylla), pigweed, palmer (palmer pigweed, Amaranthus palmeri), waterhemp (common waterhemp, Amaranthus rudis), surinam grass (Brachiaria decumbens), crabgrass, large (large crabgrass, Digitaria sanguinalis), crabgrass, Brazilian (Brazilian crabgrass, Digitaria horizontalis), panicum, fall (fall panicum, Panicum dichotomiflorum), foxtail, giant (giant foxtail, Setaria faberii), foxtail, green (green foxtail, Setaria viridis), goosegrass (Eleusine indica), johnsongrass (Sorghum halepense), ragweed (common ragweed, Ambrosia elatior), barnyardgrass (Echinochloa crus-galli), sandbur (southern sandbur, Cenchrus echinatus), arrowleaf sida (Sida rhombifolia), ryegrass, Italian (Italian ryegrass, Lolium multiflorum), dayflower, VA (Virginia dayflower, Commelina virginica), field bindweed (Convolvulus arvensis), cocklebur (common cocklebur, Xanthium strumarium), morningglory (Ipomoea coccinea), nightshade (eastern black nightshade, Solanum ptycanthum), kochia (Kochia scoparia), nutsedge, yellow (yellow nutsedge, Cyperus esculentus), smartweed (ladysthumb smartweed, Polygonum persicaria), velvetleaf (Abutilon theophrasti), horseweed (Conyza canadensis), and beggarticks (hairy beggarticks, Bidens pilosa), were planted into a silt loam soil and treated preemergence with test chemicals formulated in a non-phytotoxic solvent mixture which included a surfactant.
(§2) At the same time, plants from these crop and weed species and also waterhemp_RES1, (ALS & Triazine resistant common waterhemp, Amaranthus rudis), and waterhemp_RES2, (ALS & HPPD resistant common waterhemp, Amaranthus rudis) were planted in pots containing Sunshine Redi-Earth® planting medium comprising spaghnum peat moss, vermiculite, starter nutrients and dolomitic limestone were treated with postemergence applications of test chemicals formulated in the same manner. Plants ranged in height from 2 to 18 cm for postemergence treatments (1- to 4-leaf stage). Treated plants and controls were maintained in a greenhouse for 14 to 21 d, after which time all species were compared to controls and visually evaluated. Plant response ratings, summarized in Table E, are based on a scale of 0 to 100 where 0 is no effect and 100 is complete control. A dash (-) response means no test result.

panicum, fall [1] = test: Test E postemergence; format: in vivo, Panicum dichotomiflorum; conditions: scale 0 to 100
Source text: as §1, §2

arrowleaf sida [2] = test: Test E preemergence; format: in vivo, Sida rhombifolia; conditions: scale 0 to 100
Source text: as §1, §2

soybean [3] = test: Test E postemergence; format: in vivo, Glycine max; conditions: scale 0 to 100
Source text: as §1, §2

nutsedge, yellow = test: Test E preemergence; format: in vivo, Cyperus esculentus; conditions: scale 0 to 100
Source text: as §1, §2

ryegrass, Italian = test: Test E preemergence; format: in vivo, Lolium multiflorum; conditions: scale 0 to 100
Source text: as §1, §2

morningglory = test: Test E preemergence; format: in vivo, Ipomoea coccinea; conditions: scale 0 to 100
Source text: as §1, §2

velvetleaf = test: Test E preemergence; format: in vivo, Abutilon theophrasti; conditions: scale 0 to 100
Source text: as §1, §2

johnsongrass = test: Test E preemergence; format: in vivo, Sorghum halepense; conditions: scale 0 to 100
Source text: as §1, §2

panicum, fall [4] = test: Test E preemergence; format: in vivo, Panicum dichotomiflorum; conditions: scale 0 to 100
Source text: as §1, §2

soybean [5] = test: Test E preemergence; format: in vivo, Glycine max; conditions: scale 0 to 100
Source text: as §1, §2

foxtail, giant = test: Test E preemergence; format: in vivo, Setaria faberii; conditions: scale 0 to 100
Source text: as §1, §2

barnyardgrass = test: Test E preemergence; format: in vivo, Echinochloa crus-galli; conditions: scale 0 to 100
Source text: as §1, §2

surinam grass = test: Test E preemergence; format: in vivo, Brachiaria decumbens; conditions: scale 0 to 100
Source text: as §1, §2

beggarticks = test: Test E preemergence; format: in vivo, Bidens pilosa; conditions: scale 0 to 100
Source text: as §1, §2

crabgrass, Brazilian = test: Test E preemergence; format: in vivo, Digitaria horizontalis; conditions: Brazil, scale 0 to 100
Source text: as §1, §2

arrowleaf sida [6] = test: Test E postemergence; format: in vivo, Sida rhombifolia; conditions: scale 0 to 100
Source text: as §1, §2

corn = test: Test E postemergence; format: in vivo, Zea mays; conditions: scale 0 to 100
Source text: as §1, §2

sandbur = test: Test E postemergence; format: in vivo, Cenchrus echinatus; conditions: scale 0 to 100
Source text: as §1, §2

waterhemp = test: Test E preemergence; format: in vivo, Amaranthus rudis; conditions: scale 0 to 100
Source text: as §1, §2

CCOc1nc(-c2ccccc2)nn1Cc1ccnc(C(F)(F)F)c1 [Compound 27]
Plant response rating (crabgrass, large; 16 g ai/ha): 98
Plant response rating (crabgrass, large; 31 g ai/ha): 100
Plant response rating (crabgrass, large; 62 g ai/ha): 100
Plant response rating (crabgrass, large; 125 g ai/ha): 100
Plant response rating (panicum, fall [1]; 16 g ai/ha): 10
Plant response rating (panicum, fall [1]; 31 g ai/ha): 10
Plant response rating (panicum, fall [1]; 62 g ai/ha): 15
Plant response rating (panicum, fall [1]; 125 g ai/ha): 30
Plant response rating (arrowleaf sida [2]; 16 g ai/ha): 20
Plant response rating (arrowleaf sida [2]; 31 g ai/ha): 20
Plant response rating (arrowleaf sida [2]; 62 g ai/ha): 75
Plant response rating (arrowleaf sida [2]; 125 g ai/ha): 90
Plant response rating (soybean [3]; 16 g ai/ha): 70
Plant response rating (soybean [3]; 31 g ai/ha): 80
Plant response rating (soybean [3]; 62 g ai/ha): 80
Plant response rating (soybean [3]; 125 g ai/ha): 95
Plant response rating (nutsedge, yellow; 16 g ai/ha): 0
Plant response rating (nutsedge, yellow; 31 g ai/ha): 0
Plant response rating (nutsedge, yellow; 62 g ai/ha): 0
Plant response rating (nutsedge, yellow; 125 g ai/ha): 15
Plant response rating (ryegrass, Italian; 16 g ai/ha): 0
Plant response rating (ryegrass, Italian; 31 g ai/ha): 20
Plant response rating (ryegrass, Italian; 62 g ai/ha): 60
Plant response rating (ryegrass, Italian; 125 g ai/ha): 95
Plant response rating (morningglory; 16 g ai/ha): 15
Plant response rating (morningglory; 31 g ai/ha): 25
Plant response rating (morningglory; 62 g ai/ha): 35
Plant response rating (morningglory; 125 g ai/ha): 35
Plant response rating (velvetleaf; 16 g ai/ha): 35
Plant response rating (velvetleaf; 31 g ai/ha): 50
Plant response rating (velvetleaf; 62 g ai/ha): 50
Plant response rating (velvetleaf; 125 g ai/ha): 95
Plant response rating (johnsongrass; 16 g ai/ha): 100
Plant response rating (johnsongrass; 31 g ai/ha): 95
Plant response rating (johnsongrass; 62 g ai/ha): 100
Plant response rating (johnsongrass; 125 g ai/ha): 100
Plant response rating (panicum, fall [4]; 16 g ai/ha): 65
Plant response rating (panicum, fall [4]; 31 g ai/ha): 100
Plant response rating (panicum, fall [4]; 62 g ai/ha): 100
Plant response rating (panicum, fall [4]; 125 g ai/ha): 100
Plant response rating (soybean [5]; 16 g ai/ha): 0
Plant response rating (soybean [5]; 31 g ai/ha): 0
Plant response rating (soybean [5]; 62 g ai/ha): 0
Plant response rating (soybean [5]; 125 g ai/ha): 15
Plant response rating (foxtail, giant; 16 g ai/ha): 75
Plant response rating (foxtail, giant; 31 g ai/ha): 95
Plant response rating (foxtail, giant; 62 g ai/ha): 100
Plant response rating (foxtail, giant; 125 g ai/ha): 100
Plant response rating (barnyardgrass; 16 g ai/ha): 10
Plant response rating (barnyardgrass; 31 g ai/ha): 25
Plant response rating (barnyardgrass; 62 g ai/ha): 90
Plant response rating (barnyardgrass; 125 g ai/ha): 95
Plant response rating (surinam grass; 16 g ai/ha): 0
Plant response rating (surinam grass; 31 g ai/ha): 0
Plant response rating (surinam grass; 62 g ai/ha): 10
Plant response rating (surinam grass; 125 g ai/ha): 15
Plant response rating (beggarticks; 16 g ai/ha): 0
Plant response rating (beggarticks; 31 g ai/ha): 0
Plant response rating (beggarticks; 62 g ai/ha): 0
Plant response rating (beggarticks; 125 g ai/ha): 0
Plant response rating (crabgrass, Brazilian; 16 g ai/ha): 90
Plant response rating (crabgrass, Brazilian; 31 g ai/ha): 100
Plant response rating (crabgrass, Brazilian; 62 g ai/ha): 100
Plant response rating (crabgrass, Brazilian; 125 g ai/ha): 100
Plant response rating (arrowleaf sida [6]; 16 g ai/ha): 70
Plant response rating (arrowleaf sida [6]; 31 g ai/ha): 80
Plant response rating (arrowleaf sida [6]; 62 g ai/ha): 90
Plant response rating (arrowleaf sida [6]; 125 g ai/ha): 100
Plant response rating (corn; 16 g ai/ha): 10
Plant response rating (corn; 31 g ai/ha): 15
Plant response rating (corn; 62 g ai/ha): 20
Plant response rating (corn; 125 g ai/ha): 25
Plant response rating (sandbur; 16 g ai/ha): 0
Plant response rating (sandbur; 31 g ai/ha): 20
Plant response rating (sandbur; 62 g ai/ha): 30
Plant response rating (sandbur; 125 g ai/ha): 30
Plant response rating (waterhemp; 16 g ai/ha): 100
Plant response rating (waterhemp; 31 g ai/ha): 100
Plant response rating (waterhemp; 62 g ai/ha): 100
Plant response rating (waterhemp; 125 g ai/ha): 100
